For one assay, the target named is ROCK1 (Homo sapiens (Human), UniProt Q13464). The assay is described as follows: ROCK assay (LABCHIP peptide phosphorylation), ROCK1. The format is biochemical. The following applies: 5 μM ATP, 1.5 μM peptide substrate; read-out: ROCK1 IC50.
Another assay deals with ROCK2 (Homo sapiens (Human), UniProt O75116). The assay is described as follows: ROCK assay (LABCHIP peptide phosphorylation), ROCK2. Type of assay: biochemical. The following applies: 5 μM ATP, 1.5 μM peptide substrate.

This note sets out measurements from US9926282B2, “Phthalazinones and isoquinolinones as rock inhibitors” (BRISTOL-MYERS SQUIBB COMPANY, priority 2013, dated 2018).

Broadly, the IC50 is the concentration at which inhibition is half-maximal.

SMILES strings stand for the structures.

Chain of ROCK1 (Q13464 whole entry, species assumed): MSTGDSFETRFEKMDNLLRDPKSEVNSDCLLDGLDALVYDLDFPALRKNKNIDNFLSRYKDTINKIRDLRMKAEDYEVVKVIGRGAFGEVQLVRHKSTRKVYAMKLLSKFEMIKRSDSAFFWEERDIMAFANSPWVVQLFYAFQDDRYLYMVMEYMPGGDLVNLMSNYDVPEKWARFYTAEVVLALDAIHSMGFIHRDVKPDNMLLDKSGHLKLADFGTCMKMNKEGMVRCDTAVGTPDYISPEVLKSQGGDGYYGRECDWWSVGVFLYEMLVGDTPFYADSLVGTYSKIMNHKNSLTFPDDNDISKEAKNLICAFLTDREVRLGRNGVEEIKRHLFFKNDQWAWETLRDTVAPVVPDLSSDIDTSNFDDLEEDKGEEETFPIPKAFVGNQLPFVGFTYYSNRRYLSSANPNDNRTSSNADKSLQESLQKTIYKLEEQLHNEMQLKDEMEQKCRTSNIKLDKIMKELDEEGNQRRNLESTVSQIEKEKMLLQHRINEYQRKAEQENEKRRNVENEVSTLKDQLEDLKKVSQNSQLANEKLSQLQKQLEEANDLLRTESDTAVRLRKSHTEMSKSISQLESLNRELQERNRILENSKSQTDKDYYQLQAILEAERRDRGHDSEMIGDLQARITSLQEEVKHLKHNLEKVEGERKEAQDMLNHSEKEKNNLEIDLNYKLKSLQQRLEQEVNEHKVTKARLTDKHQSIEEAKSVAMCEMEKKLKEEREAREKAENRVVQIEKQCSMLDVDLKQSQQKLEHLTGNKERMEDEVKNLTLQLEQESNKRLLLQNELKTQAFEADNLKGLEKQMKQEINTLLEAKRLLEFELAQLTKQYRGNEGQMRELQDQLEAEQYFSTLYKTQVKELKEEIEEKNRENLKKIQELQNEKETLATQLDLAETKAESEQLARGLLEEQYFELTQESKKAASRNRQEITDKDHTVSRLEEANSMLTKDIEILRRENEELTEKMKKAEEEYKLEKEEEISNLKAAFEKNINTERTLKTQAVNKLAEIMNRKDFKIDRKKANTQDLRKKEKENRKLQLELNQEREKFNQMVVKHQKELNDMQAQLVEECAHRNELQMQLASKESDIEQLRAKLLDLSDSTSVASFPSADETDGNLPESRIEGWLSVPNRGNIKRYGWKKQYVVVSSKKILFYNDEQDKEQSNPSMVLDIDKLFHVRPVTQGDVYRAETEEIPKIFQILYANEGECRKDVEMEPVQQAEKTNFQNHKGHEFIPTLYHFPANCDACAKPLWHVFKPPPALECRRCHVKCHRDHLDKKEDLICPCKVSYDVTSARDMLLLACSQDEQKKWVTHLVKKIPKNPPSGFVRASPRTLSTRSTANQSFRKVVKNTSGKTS
Chain of ROCK2 (O75116 whole entry, species assumed): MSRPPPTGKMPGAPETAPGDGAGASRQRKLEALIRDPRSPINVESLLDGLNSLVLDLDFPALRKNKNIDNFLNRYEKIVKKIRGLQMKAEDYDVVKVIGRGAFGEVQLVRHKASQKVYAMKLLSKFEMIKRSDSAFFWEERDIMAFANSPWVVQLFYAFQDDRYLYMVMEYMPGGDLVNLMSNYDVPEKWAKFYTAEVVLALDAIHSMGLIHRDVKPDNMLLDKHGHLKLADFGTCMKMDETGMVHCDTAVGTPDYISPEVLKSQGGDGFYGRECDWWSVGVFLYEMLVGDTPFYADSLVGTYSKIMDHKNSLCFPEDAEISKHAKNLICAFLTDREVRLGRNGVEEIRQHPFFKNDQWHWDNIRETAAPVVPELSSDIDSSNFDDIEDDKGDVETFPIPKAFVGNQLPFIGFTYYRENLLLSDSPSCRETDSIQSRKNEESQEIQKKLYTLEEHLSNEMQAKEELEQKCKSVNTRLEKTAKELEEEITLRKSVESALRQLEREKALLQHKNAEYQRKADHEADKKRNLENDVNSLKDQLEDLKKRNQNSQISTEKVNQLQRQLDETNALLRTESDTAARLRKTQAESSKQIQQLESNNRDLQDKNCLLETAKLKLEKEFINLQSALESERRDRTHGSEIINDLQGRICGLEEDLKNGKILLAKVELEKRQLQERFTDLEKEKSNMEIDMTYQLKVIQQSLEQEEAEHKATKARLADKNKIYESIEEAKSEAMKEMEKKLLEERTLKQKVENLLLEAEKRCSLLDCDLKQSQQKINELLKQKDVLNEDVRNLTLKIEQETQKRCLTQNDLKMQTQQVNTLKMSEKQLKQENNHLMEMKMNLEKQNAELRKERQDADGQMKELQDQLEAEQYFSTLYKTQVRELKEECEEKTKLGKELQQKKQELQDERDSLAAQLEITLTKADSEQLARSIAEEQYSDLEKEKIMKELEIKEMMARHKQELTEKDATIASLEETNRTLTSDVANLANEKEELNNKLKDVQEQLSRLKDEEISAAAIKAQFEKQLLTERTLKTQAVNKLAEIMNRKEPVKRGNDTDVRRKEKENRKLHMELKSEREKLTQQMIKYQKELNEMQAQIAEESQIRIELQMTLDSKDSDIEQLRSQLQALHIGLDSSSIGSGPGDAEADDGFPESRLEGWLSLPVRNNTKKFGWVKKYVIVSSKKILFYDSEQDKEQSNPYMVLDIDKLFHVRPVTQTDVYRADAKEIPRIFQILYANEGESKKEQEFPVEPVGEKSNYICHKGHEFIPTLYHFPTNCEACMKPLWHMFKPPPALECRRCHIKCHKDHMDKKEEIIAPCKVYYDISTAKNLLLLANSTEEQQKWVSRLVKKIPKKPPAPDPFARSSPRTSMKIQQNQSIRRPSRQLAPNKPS

Regarding `O=c1[nH]nc(-c2ccc(Nc3nc(-c4ccccc4)cs3)cc2)c2ccccc12` [Example 74, 4-(4-((4-Phenylthiazol-2-yl)amino)phenyl)phthalazin-1(2H)-one], the IC50 on ROCK1 is 1000 to 50000 nM; at ROCK2, 0.1 to 100 nM.

Turning to `O=C(Nc1ccc(-c2n[nH]c(=O)c3ccccc23)cc1)c1ncc(-c2ccncc2)s1` [Example 47, N-[4-(4-oxo-3,4-dihydrophthalazin-1-yl)phenyl]-5-(pyridin-4-yl)-1,3-thiazole-2-carboxamide], the figures for the IC50 on ROCK1 and on ROCK2 were 101 to 1000 nM and 0.1 to 100 nM, respectively.

Turning to `O=C(Cc1ccc(-c2n[nH]c(=O)c3ccccc23)cc1)Nc1noc2c1CCCC2` [Example 276, 2-[4-(4-oxo-3,4-dihydrophthalazin-1-yl)phenyl]-N-(4,5,6,7-tetrahydro-1,2-benzoxazol-3-yl)acetamide], the IC50 on ROCK1 lay in the range of 1000 to 50000 nM; at ROCK2 it was 0.1 to 100 nM.

For the compound `COc1ccc2c(c1)CN(C(=O)Cc1ccc(-c3n[nH]c(=O)c4ccccc34)cc1)C2` [Example 3, 4-(4-(2-(5-Methoxyisoindolin-2-yl)-2-oxoethyl)phenyl)phthalazin-1(2H)-one], the results for the IC50 on ROCK1 and on ROCK2 were 101 to 1000 nM and 0.1 to 100 nM, respectively.

As to `O=C(Nc1ccc(-c2n[nH]c(=O)c3ccccc23)cc1)c1nn(CC2CCOC2)c2ccc(F)cc12` (centres unmarked) [Example 173, 5-fluoro-N-[4-(4-oxo-3,4-dihydrophthalazin-1-yl)phenyl]-1-(oxolan-3-ylmethyl)-1H-indazole-3-carboxamide], the IC50 at ROCK1 and at ROCK2 was 0.1 to 100 nM in each case.

As to `O=c1[nH]nc(-c2ccc(Nc3ncc(-c4ccccc4)s3)cc2)c2ccccc12` [Example 88, 4-(4-((5-Phenylthiazol-2-yl)amino)phenyl)phthalazin-1(2H)-one], the results for the IC50 at ROCK1 and at ROCK2 were 1000 to 50000 nM and 0.1 to 100 nM, respectively.

In the case of `CC(C)(O)Cn1cc(C(=O)Nc2ccc(-c3n[nH]c(=O)c4ccccc34)cc2)c2ccccc21` [Example 138, 1-(2-hydroxy-2-methylpropyl)-N-[4-(4-oxo-3,4-dihydrophthalazin-1-yl)phenyl]-1H-indole-3-carboxamide], the IC50 on ROCK1 and against ROCK2 was 0.1 to 100 nM in each case.

For `Cc1cc(NC(=O)c2cc(C(C)(C)C)n(C)n2)ccc1-c1n[nH]c(=O)c2ccccc12` [Example 395, 5-(tert-Butyl)-1-methyl-N-(3-methyl-4-(4-oxo-3,4-dihydrophthalazin-1-yl)phenyl)-1H-pyrazole-3-carboxamide], the half-inhibitory concentration (IC50) at ROCK1 and on ROCK2 was 0.1 to 100 nM each time.

`CCOc1ccc2c(c1)N(C(=O)Cc1ccc(-c3n[nH]c(=O)c4ccccc34)cc1)CC2` [Example 33, 4-{4-[2-(6-ethoxy-2,3-dihydro-1H-indol-1-yl)-2-oxoethyl]phenyl}-1,2-dihydrophthalazin-1-one]: the IC50 at ROCK1 and against ROCK2 was 0.1 to 100 nM each time.

Take `CN1CCc2nc(C(=O)Nc3ccc(-c4n[nH]c(=O)c5ccccc45)cc3)sc2C1` [Example 51, 5-methyl-N-[4-(4-oxo-3,4-dihydrophthalazin-1-yl)phenyl]-4H,5H,6H, 7H-[1,3]thiazolo[5,4-c] pyridine-2-carboxamide]: the IC50 at ROCK1 is 1000 to 50000 nM; on ROCK2 it was 0.1 to 100 nM.

Consider `O=C(Nc1ccc(-c2c[nH]c(=O)c3ccccc23)cc1)c1ccc(N2CCCCC2)cc1` [Example 249, N-(4-(1-Oxo-1,2-dihydroisoquinolin-4-yl)phenyl)-4-(piperidin-1-yl)benzamide], for which the IC50 on ROCK1 and on ROCK2 was 0.1 to 100 nM each time.

Regarding `CC(C)N1CC(C(=O)Nc2ccc(-c3n[nH]c(=O)c4ccccc34)cc2)CC1=O` (centres unmarked) [Example 218, 5-oxo-N-[4-(4-oxo-3,4-dihydrophthalazin-1-yl)phenyl]-1-(propan-2-yl)pyrrolidine-3-carboxamide], the values for the IC50 at ROCK1 and against ROCK2 were 1000 to 50000 nM and 101 to 1000 nM, respectively.

Consider `Cc1cc(CC(=O)N2CCc3ccccc32)ccc1-c1c[nH]c(=O)c2ccccc12` [Example 264, 4-(4-(2-(Indolin-1-yl)-2-oxoethyl)-2-methylphenyl)isoquinolin-1(2H)-one], for which the IC50 at ROCK1 and against ROCK2 was 0.1 to 100 nM each time.

Turning to `CC(C)Oc1ccc2c(c1)N(C(=O)Cc1ccc(-c3n[nH]c(=O)c4ccccc34)cc1)CC2` [Example 258, 4-(4-(2-(6-Isopropoxyindolin-1-yl)-2-oxoethyl)phenyl)phthalazin-1(2H)-one], the IC50 at ROCK1 and at ROCK2 was 0.1 to 100 nM throughout.

For `O=C(Nc1ccc(-c2n[nH]c(=O)c3ccccc23)cc1)c1nn(CC2COC2)c2cc(F)ccc12` [Example 159, 6-fluoro-1-(oxetan-3-ylmethyl)-N-[4-(4-oxo-3,4-dihydrophthalazin-1-yl)phenyl]-1H-indazole-3-carboxamide], the IC50 on ROCK1 and on ROCK2 was 0.1 to 100 nM throughout.

On to `O=C(Cc1ccc(-c2n[nH]c(=O)c3ccccc23)cc1)N1CCC(Cc2ccccc2)CC1` [Example 17, 4-{4-[2-(4-benzylpiperidin-1-yl)-2-oxoethyl]phenyl}-1,2-dihydrophthalazin-1-one], for which the IC50 was 1000 to 50000 nM on ROCK1 and 0.1 to 100 nM against ROCK2.

`O=C(Nc1ccc(-c2n[nH]c(=O)c3ccccc23)cc1)c1cnn(CC(O)(C(F)(F)F)C(F)(F)F)c1` [Example 380, N-(4-(4-Oxo-3,4-dihydrophthalazin-1-yl)phenyl)-1-(3,3,3-trifluoro-2-hydroxy-2-(trifluoromethyl)propyl)-1H-pyrazole-4-carboxamide]: the IC50 at ROCK1 fell in the range of 101 to 1000 nM; against ROCK2, 0.1 to 100 nM.

On to `O=C(Cc1ccc(-c2n[nH]c(=O)c3ccccc23)cc1)Nc1nncs1` [Example 29, 2-[4-(4-oxo-3,4-dihydrophthalazin-1-yl)phenyl]-N-(1,3,4-thiadiazol-2-yl)acetamide], for which the IC50 on ROCK1 fell in the range of 1000 to 50000 nM; against ROCK2, 0.1 to 100 nM.

As for `CN1CCC(Oc2ccc3c(c2)N(C(=O)Cc2ccc(-c4n[nH]c(=O)c5ccccc45)cc2)CC3)CC1` [Example 282, 4-[4-(2-{6-[(1-methylpiperidin-4-yl)oxy]-2,3-dihydro-1H-indol-1-yl}-2-oxoethyl)phenyl]-1,2-dihydrophthalazin-1-one], the IC50 is 101 to 1000 nM on ROCK1 and 0.1 to 100 nM on ROCK2.

Regarding `O=C(Cc1ccc(-c2c[nH]c(=O)c3ccccc23)cc1)N1Cc2ccccc2C1` [Example 38, 4-(4-(2-(Isoindolin-2-yl)-2-oxoethyl)phenyl)isoquinolin-1(2H)-one], the results for the IC50 at ROCK1 and against ROCK2 were 101 to 1000 nM and 0.1 to 100 nM, respectively.

As to `O=C(Cc1ccc(-c2n[nH]c(=O)c3ccccc23)cc1)N1CCc2ccc(OCc3cccnc3)cc21` [Example 270, 4-(4-{2-oxo-2-[6-(pyridin-3-ylmethoxy)-2,3-dihydro-1H-indol-1-yl]ethyl}phenyl)-1,2-dihydrophthalazin-1-one], the IC50 at ROCK1 and against ROCK2 was 0.1 to 100 nM throughout.

For the compound `Cn1ccc(C(=O)Nc2ccc(-c3n[nH]c(=O)c4ccccc34)cc2)n1` [Example 227, 1-methyl-N-[4-(4-oxo-3,4-dihydrophthalazin-1-yl)phenyl]-1H-pyrazole-3-carboxamide], the values for the IC50 at ROCK1 and against ROCK2 were 101 to 1000 nM and 0.1 to 100 nM, respectively.

In the case of `CC(C)(O)Cn1nc(C(=O)Nc2ccc(-c3n[nH]c(=O)c4ccccc34)c(CO)c2)c2ccccc21` [Example 360, 1-(2-Hydroxy-2-methylpropyl)-N-(3-(hydroxymethyl)-4-(4-oxo-3,4-dihydrophthalazin-1-yl)phenyl)-1H-indazole-3-carboxamide], the IC50 at ROCK1 is 1000 to 50000 nM; against ROCK2, 0.1 to 100 nM.

Regarding `O=C(Cc1ccc(-c2n[nH]c(=O)c3ccccc23)cc1)Nc1nccs1` [Example 28, 2-[4-(4-oxo-3,4-dihydrophthalazin-1-yl)phenyl]-N-(1,3-thiazol-2-yl)acetamide], the IC50 on ROCK1 lay in the range of 1000 to 50000 nM; against ROCK2, 101 to 1000 nM.

For `Cc1cc(NC(=O)c2nn(CC3CCN(CCCCO)CC3)c3ccccc23)ccc1-c1n[nH]c(=O)c2ccccc12` [Example 321, 1-((1-(4-Hydroxybutyl)piperidin-4-yl)methyl)-N-(3-methyl-4-(4-oxo-3,4-dihydrophthalazin-1-yl)phenyl)-1H-indazole-3-carboxamide], the IC50 at ROCK1 was in the range of 0.1 to 100 nM; against ROCK2 it was 101 to 1000 nM.

Turning to `O=C(Nc1ccc(-c2n[nH]c(=O)c3ccccc23)cc1)c1cnn(Cc2ccccc2)c1` [Example 200, 1-benzyl-N-[4-(4-oxo-3,4-dihydrophthalazin-1-yl)phenyl]-1H-pyrazole-4-carboxamide], the IC50 at ROCK1 and against ROCK2 was 0.1 to 100 nM each time.

With `O=C(Cc1ccc(-c2n[nH]c(=O)c3ccccc23)cc1)Nc1ccc2c(c1)OCCO2` [Example 24, N-(2,3-dihydro-1,4-benzodioxin-6-yl)-2-[4-(4-oxo-3,4-dihydrophthalazin-1-yl)phenyl]acetamide], the IC50 on ROCK1 lay within 101 to 1000 nM; against ROCK2, 0.1 to 100 nM.

For the compound `COc1ccc2c(c1)N(C(=O)Nc1ccc(-c3c[nH]c(=O)c4cc(OC)c(OC)cc34)cc1)CC2` [Example 257, N-(4-(6,7-Dimethoxy-1-oxo-1,2-dihydroisoquinolin-4-yl)phenyl)-6-methoxyindoline-1-carboxamide], the figures for the IC50 on ROCK1 and on ROCK2 were 1000 to 50000 nM and 0.1 to 100 nM, respectively.

With `O=C(Nc1ccc(-c2n[nH]c(=O)c3ccccc23)cc1)c1nn(Cc2cccnc2)c2ccccc12` [Example 161, N-[4-(4-oxo-3,4-dihydrophthalazin-1-yl)phenyl]-1-(pyridin-3-ylmethyl)-1H-indazole-3-carboxamide], the IC50 at ROCK1 and on ROCK2 was 0.1 to 100 nM in each case.

With `O=C(Nc1ccc(-c2n[nH]c(=O)c3ccccc23)cc1)c1n[nH]c2ccc(Cl)cc12` [Example 114, 5-chloro-N-[4-(4-oxo-3,4-dihydrophthalazin-1-yl)phenyl]-1H-indazole-3-carboxamide], the IC50 at ROCK1 lay in the range of 101 to 1000 nM; against ROCK2, 0.1 to 100 nM.

Consider `COc1ccc(C#N)c(-n2cnc(C(=O)Nc3ccc(-c4n[nH]c(=O)c5ccccc45)cc3)n2)c1` [Example 239, 1-(2-cyano-5-methoxyphenyl)-N-[4-(4-oxo-3,4-dihydrophthalazin-1-yl)phenyl]-1H-1,2,4-triazole-3-carboxamide], for which the IC50 lay within 101 to 1000 nM on ROCK1 and 0.1 to 100 nM against ROCK2.
